Four compounds from patent publication US20180280377A1, “Imidazo[4,5-c]quinolin-2-one Compounds and Their Use in Treating Cancer” (ASTRAZENECA AB, priority 2015, published 2018) can be followed below.

Holding throughout (format): cell-based
Assay [1] deals with PI3Kα (Homo sapiens, UniProt P42336). The assay can be described thus: PI3K cellular potency assay (phospho-Akt T308 in BT474 cells, ELISA). The conditions noted are these: 2 h, phospho-Akt (T308); Table 2; read-out: Assay c) PI3Kα Cell IC50. As for the experimental part:
(§1) The following assays were used to measure the effects of the compounds of the present invention: a) ATM cellular potency assay; b) PI3K cellular potency assay; c) mTOR cellular potency assay; d) ATR cellular potency assay. During the description of the assays, generally: • i. […] IC50 values were calculated using a smart fitting model in Genedata.
This assay was used to measure PI3K-α inhibition in cells. PDK1 was identified as the upstream activation loop kinase of protein kinase B (Akt1), which is essential for the activation of PKB. Activation of the lipid kinase phosphoinositide 3 kinase (PI3K) is critical for the activation of PKB by PDK1.
Following ligand stimulation of receptor tyrosine kinases, PI3K is activated, which converts PIP2 to PIP3, which is bound by the PH domain of PDK1 resulting in recruitment of PDK1 to the plasma membrane where it phosphorylates AKT at Thr308 in the activation loop.
The aim of this cell-based mode of action assay is to identify compounds that inhibit PDK activity or recruitment of PDK1 to membrane by inhibiting PI3K activity. Phosphorylation of phospho-Akt (T308) in BT474c cells following treatment with compounds for 2 h is a direct measure of PDK1 and indirect measure of PI3K activity.
The following morning compounds in 100% DMSO were added to assay plates by acoustic dispensing.
Plates were incubated over night at 4° C. The next day the plates were washed with PBS buffer containing 0.05% Tween 20 and further incubated with a mouse monoclonal anti-phospho AKT T308 for 2 h. Plates were washed again as above before addition of a horse anti-mouse-HRP conjugated secondary antibody. […] The developed fluorescent product was stopped after 60 minutes by addition of Stop solution to the wells.
A general note: An ELISA detects its analyte on a solid surface through an enzyme-linked reagent.

In assay [2] the target is T1, ATR (Homo sapiens, UniProt Q13535).
T1 construct: endogenous in cells; host or cells: HT29 cells (ECACC #85061109)
The assay can be described thus: ATR cellular potency assay (pChk1 Ser345 in HT29 cells after 4NQO). The settings on record: pChk1 (Ser 345); Table 2; read-out: Assay b) ATR Cell IC50. How it is done:
as §1
ATR is a PI3-kinase-related kinase which phosphorylates multiple substrates on serine or threonine residues in response to DNA damage during or replication blocks. Chk1, a downstream protein kinase of ATR, plays a key role in DNA damage checkpoint control. Activation of Chk1 involves phosphorylation of Ser317 and Ser345 (the latter regarded as the preferential target for phosphorylation/activation by ATR).
The following morning compound of Formula (I) in 100% DMSO were added to assay plates by acoustic dispensing. After 1 h incubation at 37° C. and 5% CO2, 40 nl of 3 mM 4NQO in 100% DMSO was added to all wells by acoustic dispensing, except minimum control wells which were left untreated with 4NQO to generate a null response control. Plates were returned to the incubator for a further 1 h. Then cells were fixed by adding 20 μl of 3.7% formaldehyde in PBS solution and incubating for 20 mins at r.t. Then […] of 0.1% Triton X100 in PBS was added and incubated for 10 minutes at r.t., to permeabalise cells. Then the plates were washed once with […] PBS, using a Biotek EL405 plate washer.
After 2 h incubation at r.t., the plates were washed three times with […] PBS, using a Biotek EL405 plate washer, and plates were then sealed with black plate seals until read. Plates were read using an ArrayScan VTI instrument, using an XF53 filter with 10× objective.

The target in assay [3] is T2, ATM (Homo sapiens, UniProt Q13315).
T2 construct: endogenous in cells; host or cells: HT29 cells (ECACC #85061109)
The assay can be described thus: ATM cellular potency assay (pATM Ser1981 in irradiated HT29 cells). The conditions noted are these: 1 h compound, X-ray irradiation, pATM (Ser1981); Table 2; read-out: Assay a) ATM Cell IC50. As for the experimental part:
as §1
Most ATM molecules in the cell are rapidly phosphorylated on this site after doses of radiation as low as 0.5 Gy, and binding of a phosphospecific antibody is detectable after the introduction of only a few DNA double-strand breaks in the cell.
The rationale of the pATM assay is to identify inhibitors of ATM in cells. HT29 cells are incubated with test compounds for 1 h prior to X-ray-irradiation. 1 h later the cells are fixed and stained for pATM (Ser1981). The fluorescence is read on the arrayscan imaging platform.
The following morning compounds of Formula (I) in 100% DMSO were added to assay plates by acoustic dispensing. After 1 h incubation at 37° C. and 5% CO2, plates (up to 6 at a time) were irradiated using the X-RAD 320 instrument (PXi) with equivalent to 600 cGy. Plates were returned to the incubator for a further 1 h. Then cells were fixed by adding 20 μl of 3.7% formaldehyde in PBS solution and incubating for 20 minutes at r.t. before being washed with 50μl/well PBS, using a Biotek EL405 plate washer. Then 20 μl of 0.1% Triton X100 in PBS was added and incubated for 20 minutes at r.t., to permeabalise cells. Then the plates were washed once with 50 μl/well PBS, using a Biotek EL405 plate washer.
After 1 h incubation at r.t., the plates were washed three times with 50 μl/well PBS, using a Biotek EL405 plate washer, and plates were sealed and kept in PBS at 4° C. until read. Plates were read using an ArrayScan VTI instrument, using an XF53 filter with 10× objective.

Usually IC50 stands for the concentration needed to halve the response being measured.

PI3Kα, sequence (P42336 whole entry): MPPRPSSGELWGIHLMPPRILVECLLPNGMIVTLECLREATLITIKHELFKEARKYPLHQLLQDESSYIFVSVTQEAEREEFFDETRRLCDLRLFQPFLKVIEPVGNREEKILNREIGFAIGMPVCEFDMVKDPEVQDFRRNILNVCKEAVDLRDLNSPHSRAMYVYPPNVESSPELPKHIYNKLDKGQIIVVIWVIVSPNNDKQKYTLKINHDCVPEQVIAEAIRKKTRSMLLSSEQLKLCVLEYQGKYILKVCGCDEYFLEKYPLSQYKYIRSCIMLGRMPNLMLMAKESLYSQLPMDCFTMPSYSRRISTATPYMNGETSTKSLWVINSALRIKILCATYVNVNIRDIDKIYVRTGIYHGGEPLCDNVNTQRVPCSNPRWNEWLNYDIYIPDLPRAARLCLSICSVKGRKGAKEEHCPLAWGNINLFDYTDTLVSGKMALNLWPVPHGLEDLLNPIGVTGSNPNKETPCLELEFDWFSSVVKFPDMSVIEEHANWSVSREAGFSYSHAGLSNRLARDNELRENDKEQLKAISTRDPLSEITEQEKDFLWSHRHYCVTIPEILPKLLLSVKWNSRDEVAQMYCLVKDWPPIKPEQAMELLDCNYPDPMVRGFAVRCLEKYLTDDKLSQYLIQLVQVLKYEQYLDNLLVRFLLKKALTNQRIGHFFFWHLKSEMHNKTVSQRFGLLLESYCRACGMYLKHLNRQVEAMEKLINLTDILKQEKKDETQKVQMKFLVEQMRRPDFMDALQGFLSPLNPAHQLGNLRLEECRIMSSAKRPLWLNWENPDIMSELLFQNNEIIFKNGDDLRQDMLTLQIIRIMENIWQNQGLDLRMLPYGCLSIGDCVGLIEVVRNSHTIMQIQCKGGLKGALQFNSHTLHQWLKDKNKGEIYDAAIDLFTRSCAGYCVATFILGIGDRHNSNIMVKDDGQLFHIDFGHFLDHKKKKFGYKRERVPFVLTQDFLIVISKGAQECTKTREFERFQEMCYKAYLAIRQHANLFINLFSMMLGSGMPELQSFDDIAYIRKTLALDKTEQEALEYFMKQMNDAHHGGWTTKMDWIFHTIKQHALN
PI3Kα, sequence (P27986 2-724, further chain): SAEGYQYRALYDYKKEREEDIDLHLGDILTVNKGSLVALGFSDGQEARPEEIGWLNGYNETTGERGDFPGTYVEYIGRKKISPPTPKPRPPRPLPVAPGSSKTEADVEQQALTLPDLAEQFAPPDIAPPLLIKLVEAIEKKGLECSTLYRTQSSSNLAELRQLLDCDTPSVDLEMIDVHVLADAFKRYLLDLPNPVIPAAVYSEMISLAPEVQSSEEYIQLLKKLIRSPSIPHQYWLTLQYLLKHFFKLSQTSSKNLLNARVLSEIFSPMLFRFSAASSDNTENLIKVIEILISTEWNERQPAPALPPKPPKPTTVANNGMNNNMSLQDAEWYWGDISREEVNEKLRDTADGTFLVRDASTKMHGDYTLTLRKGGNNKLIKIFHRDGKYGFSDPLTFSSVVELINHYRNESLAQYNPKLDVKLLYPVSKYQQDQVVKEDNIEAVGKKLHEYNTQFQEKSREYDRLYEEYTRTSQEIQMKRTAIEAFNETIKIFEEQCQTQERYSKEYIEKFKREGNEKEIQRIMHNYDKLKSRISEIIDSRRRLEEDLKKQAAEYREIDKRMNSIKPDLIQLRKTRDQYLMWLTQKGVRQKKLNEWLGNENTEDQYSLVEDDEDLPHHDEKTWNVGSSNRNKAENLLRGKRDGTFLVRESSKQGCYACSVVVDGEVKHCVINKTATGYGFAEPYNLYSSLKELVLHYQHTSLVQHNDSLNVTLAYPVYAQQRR
T2 sequence (Q13315 whole entry): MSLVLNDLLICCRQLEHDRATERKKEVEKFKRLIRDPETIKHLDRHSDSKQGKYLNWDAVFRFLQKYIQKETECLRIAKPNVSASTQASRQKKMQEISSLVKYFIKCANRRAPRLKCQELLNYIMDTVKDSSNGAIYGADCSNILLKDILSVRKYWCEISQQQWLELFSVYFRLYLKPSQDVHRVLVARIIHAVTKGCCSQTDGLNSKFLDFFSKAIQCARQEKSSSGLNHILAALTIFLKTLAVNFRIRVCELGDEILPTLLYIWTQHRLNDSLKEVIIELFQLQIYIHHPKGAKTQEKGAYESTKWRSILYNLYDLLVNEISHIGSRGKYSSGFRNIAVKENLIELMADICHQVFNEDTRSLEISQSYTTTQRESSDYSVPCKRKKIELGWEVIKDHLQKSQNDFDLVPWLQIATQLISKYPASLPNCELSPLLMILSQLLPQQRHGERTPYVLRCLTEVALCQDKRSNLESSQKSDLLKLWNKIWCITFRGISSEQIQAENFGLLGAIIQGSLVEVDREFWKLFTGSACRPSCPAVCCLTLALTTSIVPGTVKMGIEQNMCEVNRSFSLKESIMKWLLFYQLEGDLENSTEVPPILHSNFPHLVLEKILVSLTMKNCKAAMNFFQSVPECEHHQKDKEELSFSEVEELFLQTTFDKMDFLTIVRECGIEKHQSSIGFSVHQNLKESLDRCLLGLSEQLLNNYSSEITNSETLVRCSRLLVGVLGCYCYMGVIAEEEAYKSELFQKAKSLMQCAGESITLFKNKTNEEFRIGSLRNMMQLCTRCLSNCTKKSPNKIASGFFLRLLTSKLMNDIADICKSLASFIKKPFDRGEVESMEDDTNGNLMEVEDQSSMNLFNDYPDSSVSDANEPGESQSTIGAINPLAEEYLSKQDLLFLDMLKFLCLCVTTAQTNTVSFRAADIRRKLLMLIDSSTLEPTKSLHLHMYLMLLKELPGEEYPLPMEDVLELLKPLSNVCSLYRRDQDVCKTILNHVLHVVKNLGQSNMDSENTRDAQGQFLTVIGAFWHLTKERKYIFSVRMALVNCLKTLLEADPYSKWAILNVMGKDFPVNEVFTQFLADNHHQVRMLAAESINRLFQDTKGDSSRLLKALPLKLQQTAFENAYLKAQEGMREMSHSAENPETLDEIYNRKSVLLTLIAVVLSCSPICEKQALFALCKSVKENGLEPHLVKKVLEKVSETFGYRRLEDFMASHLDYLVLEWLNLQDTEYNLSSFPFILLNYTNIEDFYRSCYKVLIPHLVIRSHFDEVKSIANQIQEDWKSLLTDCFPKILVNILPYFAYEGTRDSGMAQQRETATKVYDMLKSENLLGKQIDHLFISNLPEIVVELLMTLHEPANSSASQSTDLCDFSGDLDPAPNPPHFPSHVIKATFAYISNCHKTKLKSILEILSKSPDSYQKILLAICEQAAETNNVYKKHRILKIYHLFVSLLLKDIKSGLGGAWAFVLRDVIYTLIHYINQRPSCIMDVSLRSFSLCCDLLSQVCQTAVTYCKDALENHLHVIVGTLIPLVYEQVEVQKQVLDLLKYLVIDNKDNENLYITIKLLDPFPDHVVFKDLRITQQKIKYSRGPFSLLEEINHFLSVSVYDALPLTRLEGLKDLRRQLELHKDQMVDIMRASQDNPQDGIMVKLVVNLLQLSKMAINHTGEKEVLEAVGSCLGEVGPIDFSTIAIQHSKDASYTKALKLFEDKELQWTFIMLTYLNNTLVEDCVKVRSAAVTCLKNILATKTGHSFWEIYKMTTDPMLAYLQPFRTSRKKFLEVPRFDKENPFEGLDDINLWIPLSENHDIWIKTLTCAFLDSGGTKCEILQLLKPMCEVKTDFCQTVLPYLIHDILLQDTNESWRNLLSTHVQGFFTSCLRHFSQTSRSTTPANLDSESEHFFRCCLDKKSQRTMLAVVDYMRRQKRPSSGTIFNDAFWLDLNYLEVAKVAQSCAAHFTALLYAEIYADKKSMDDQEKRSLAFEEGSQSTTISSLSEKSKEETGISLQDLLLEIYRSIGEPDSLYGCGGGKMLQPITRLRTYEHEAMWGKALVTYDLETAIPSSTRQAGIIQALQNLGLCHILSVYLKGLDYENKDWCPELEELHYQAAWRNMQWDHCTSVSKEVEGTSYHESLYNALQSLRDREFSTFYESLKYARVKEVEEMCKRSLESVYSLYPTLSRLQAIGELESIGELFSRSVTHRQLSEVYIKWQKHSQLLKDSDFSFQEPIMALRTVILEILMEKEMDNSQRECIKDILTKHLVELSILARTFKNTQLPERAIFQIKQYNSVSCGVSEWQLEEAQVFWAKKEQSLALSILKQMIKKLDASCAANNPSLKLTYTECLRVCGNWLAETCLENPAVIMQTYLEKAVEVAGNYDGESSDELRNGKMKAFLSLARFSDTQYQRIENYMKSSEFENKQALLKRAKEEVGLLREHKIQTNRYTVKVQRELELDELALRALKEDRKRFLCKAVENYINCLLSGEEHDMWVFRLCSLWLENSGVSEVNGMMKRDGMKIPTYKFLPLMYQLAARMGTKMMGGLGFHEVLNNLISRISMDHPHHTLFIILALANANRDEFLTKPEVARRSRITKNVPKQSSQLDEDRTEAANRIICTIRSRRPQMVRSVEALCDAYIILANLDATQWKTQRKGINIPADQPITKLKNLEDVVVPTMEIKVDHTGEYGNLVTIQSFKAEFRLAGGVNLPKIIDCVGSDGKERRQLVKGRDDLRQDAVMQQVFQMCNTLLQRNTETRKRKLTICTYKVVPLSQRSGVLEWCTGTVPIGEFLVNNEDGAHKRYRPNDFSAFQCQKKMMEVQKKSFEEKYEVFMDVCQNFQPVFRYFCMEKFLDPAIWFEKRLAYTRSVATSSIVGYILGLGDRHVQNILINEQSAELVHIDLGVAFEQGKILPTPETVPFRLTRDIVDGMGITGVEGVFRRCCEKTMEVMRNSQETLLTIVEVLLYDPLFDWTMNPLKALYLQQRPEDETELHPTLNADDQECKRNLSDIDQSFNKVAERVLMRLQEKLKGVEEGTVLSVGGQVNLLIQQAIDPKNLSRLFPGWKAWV

With `CC(C)n1c(=O)n(C)c2cnc3ccc(-c4ccc(N5CC[C@@H](N(C)C)C5)nc4)cc3c21` [Example 1, 8-[6-[(3R)-3-(Dimethylamino)pyrrolidin-1-yl]-3-pyridyl]-1-isopropyl-3-methyl-imidazo[4,5-c]quinolin-2-one], the IC50 in assay [1] is 470 nM.
On to `CO[C@H]1CC[C@H](n2c(=O)n(C)c3cnc4ccc(-c5ccc(N6CCC(N(C)C)CC6)nc5)cc4c32)C1` (single isomer, unassigned) [Example 33, 8-[6-[4-(dimethylamino)-1-piperidyl]-3-pyridyl]-1-[trans-3-methoxycyclopentyl]-3-methyl-imidazo[4,5-c]quinolin-2-one], for which the results for the IC50 in assay [2], in assay [1] and in assay [3] were greater than 25.7 µM, 1090 nM and 0.332 nM, respectively.
Regarding `CC(C)n1c(=O)n(C)c2cnc3ccc(-c4ccc(N5CC(N(C)C)C5)nc4)cc3c21` [Example 4, 8-[6-[3-(dimethylamino)azetidin-1-yl]-3-pyridyl]-1-isopropyl-3-methyl-imidazo[4,5-c]quinolin-2-one], the IC50 in assay [1] turned out to be 243 nM.
`CC(C)n1c(=O)n(C)c2cnc3cc(F)c(-c4ccc(N5CCC(N(C)C)CC5)nc4)cc3c21` [Example 3, 8-[6-[4-(dimethylamino)-1-piperidyl]-3-pyridyl]-7-fluoro-1-isopropyl-3-methyl-imidazo[4,5-c]quinolin-2-one]: the IC50 in assay [2] is greater than 30 µM; in assay [1], 19300 nM.
